What was measured:
[1] = tested on: Hep-G2 cells; test: MTT cytotoxicity assay; type: cell-based; details: Homo sapiens
Procedure: The in vitro cytotoxicity of HES-10-HCPT-SS-Ly micelles was evaluated by MTT assay and Hep-G2 cell lines were used as model object. The Hep-G2 cells were seeded by using 96-well plates and the cell density was 6 × 10^3. The temperature of cell culture was 37 °C and the concentration of CO2 was 5%. The culture medium was removed after 24 h and the micelle solutions with different concentrations are added. The incubation time was 48 h and 72 h respectively to fully evaluate the relationship between cytotoxicity and culture time. Then, 50 μL MTT (0.25 mg/mL) was added to each well and the supernatant was removed. The precipitated formazan crystals were dissolved by DMSO solution after 4 h. The OD values were determined by using an ELIASA reader and the detection wavelength was 492 nm. In addition, cellular uptake of HES-10-HCPT-SS-Ly micelles was also assessed in Hep-G2 cell line. Similarly, the culture medium was removed and different 10-HCPT preparations were added with concentrations of 1.0 mg/mL 24 h after incubation. The 96-well plate was incubated at room temperature on a plate shaker for 24 h, the cells were then washed three times with PBS solution. […] Then, the concentration of 10-HCPT in Hep-G2 cells was determined by HPLC–MS/MS method.

[2] = Rat pharmacokinetics after intravenous administration; type: in vivo, Sprague-Dawley rats; details: Sprague-Dawley, plasma, 1.5 mg/kg
Procedure: The pharmacokinetics of HES-10-HCPT-SS-Ly micelles and 10-HCPT injection in Sprague-Dawley rats were evaluated in this study (n = 6). Briefly, HES-10-HCPT-SS-Ly micelles and 10-HCPT injection were injected, respectively. The dose of 10-HCPT was 1.5 mg/kg in both groups. 0.2 mL blood was collected 5 min, 10 min, 15 min, 30 min, 60 min, 2 h, 4 h, 6 h, 8 h, 12 h, 24 h, 48 h, and 72 h after administration. The concentration of 10-HCPT in plasma was determined by HPLC–MS/MS method.

[3] = tested on: Hep-G2 cells; test: Cellular uptake test (10-HCPT in cells by HPLC-MS/MS); type: cell-based, human; details: pH 7.4, 72 h incubation, compared with HES-10-HCPT micelles and HES-10-HCPT-SS-Ly micelles
Procedure: The in vitro cytotoxicity of HES-10-HCPT-SS-Ly micelles was evaluated by MTT assay and Hep-G2 cell lines were used as model object. The Hep-G2 cells were seeded by using 96-well plates and the cell density was 6 × 10^3. The temperature of cell culture was 37 °C and the concentration of CO2 was 5%. The culture medium was removed after 24 h and the micelle solutions with different concentrations are added. The incubation time was 48 h and 72 h respectively to fully evaluate the relationship between cytotoxicity and culture time. Then, 50 μL MTT (0.25 mg/mL) was added to each well and the supernatant was removed. The precipitated formazan crystals were dissolved by DMSO solution after 4 h. The OD values were determined by using an ELIASA reader and the detection wavelength was 492 nm. In addition, cellular uptake of HES-10-HCPT-SS-Ly micelles was also assessed in Hep-G2 cell line. Similarly, the culture medium was removed and different 10-HCPT preparations were added with concentrations of 1.0 mg/mL 24 h after incubation. […] Briefly, cells were collected and lysed using a French Pressure Cell, the lysate was clarified by centrifugation, and the supernatant liquid was processed by applying liquid–liquid extraction. Then, the concentration of 10-HCPT in Hep-G2 cells was determined by HPLC–MS/MS method.

Structure (SMILES): CC[C@@]1(O)C(=O)OCc2c1cc1n(c2=O)Cc2cc3cc(O)ccc3nc2-1 [free 10-HCPT, 10-Hydroxy camptothecin]
- IC50 ([1]; HepG2, culture medium pH 7.4, MTT): 5.1 µM
- IC50 ([1]; HepG2, pH 5.5, MTT): 4.3 µM
- half-life [2]: 10 min
- cellular uptake by Hep G2 cells [3]: more easily taken up

Source: PMC7170360 (Drug Delivery, 2020)
